For 21 compounds, Ki results are on record in patent US20040156869A1, “2-substituted quinazolin-4-ylamine analogues” (Neurogen Corporation, priority 2002, published 2004).

One may read the Ki as the dissociation constant of the complex between target and ligand, obtained from inhibition or displacement. High values mean a looser hold on the target, low ones a stronger hold on the target.

Chain of human capsaicin receptor (VR1) (Q8NER1 whole entry): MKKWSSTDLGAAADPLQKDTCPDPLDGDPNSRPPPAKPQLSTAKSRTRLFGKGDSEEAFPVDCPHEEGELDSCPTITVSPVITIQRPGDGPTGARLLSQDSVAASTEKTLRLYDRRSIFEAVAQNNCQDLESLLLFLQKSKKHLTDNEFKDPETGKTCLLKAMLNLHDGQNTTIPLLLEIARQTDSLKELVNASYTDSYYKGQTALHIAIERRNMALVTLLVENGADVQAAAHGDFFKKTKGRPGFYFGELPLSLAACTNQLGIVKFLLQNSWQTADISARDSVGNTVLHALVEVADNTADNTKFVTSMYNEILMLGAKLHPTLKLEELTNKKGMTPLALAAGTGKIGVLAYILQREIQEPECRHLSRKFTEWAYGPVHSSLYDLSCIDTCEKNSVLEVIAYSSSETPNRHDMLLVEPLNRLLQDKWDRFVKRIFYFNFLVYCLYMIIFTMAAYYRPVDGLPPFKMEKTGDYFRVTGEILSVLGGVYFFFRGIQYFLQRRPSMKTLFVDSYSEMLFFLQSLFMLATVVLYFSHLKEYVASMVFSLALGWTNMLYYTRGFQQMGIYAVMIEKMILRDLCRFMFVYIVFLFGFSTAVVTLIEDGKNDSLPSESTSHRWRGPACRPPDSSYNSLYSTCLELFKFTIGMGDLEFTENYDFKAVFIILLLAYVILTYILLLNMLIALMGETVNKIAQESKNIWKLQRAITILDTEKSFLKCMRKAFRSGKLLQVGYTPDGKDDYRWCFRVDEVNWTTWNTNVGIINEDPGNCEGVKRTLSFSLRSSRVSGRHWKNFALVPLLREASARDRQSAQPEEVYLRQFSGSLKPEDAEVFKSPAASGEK

This assay concerns the target human capsaicin receptor (VR1) (Homo sapiens, UniProt Q8NER1). The assay can be described thus: Capsaicin receptor binding assay ([3H]RTX competition, VR1-transfected HEK293 membranes).
Regarding `CCCN(C)Cc1nc(Nc2ccc(C(F)(F)F)nc2)c2ccc(-c3ncccc3C(F)(F)F)cc2n1` [Compound 369, [2-[(Methyl-propyl-amino)-methyl]-7-(3-trifluoromethyl-pyridin-2-yl)-quinazolin-4-yl]-(6-trifluoromethyl-pyridin-3-yl)-amine], the inhibition constant (Ki) is < 1000 nM.

As to `CCCCN(C)Cc1nc(Nc2ccc(C(F)(F)F)nc2)c2ccc(-c3ncccc3C(F)(F)F)cc2n1` [Compound 370, [2-[(Butyl-methyl-amino)-methyl]-7-(3-trifluoromethyl-pyridin-2-yl)-quinazolin-4-yl]-(6-trifluoromethyl-pyridin-3-yl)-amine], the Ki is < 1000 nM.

As to `CCN(Cc1nc(Nc2ccc(C(F)(F)F)nc2)c2ccc(-c3ncccc3C(F)(F)F)cc2n1)C(C)C` [Compound 371, [2-[(Ethyl-isopropyl-amino)-methyl]-7-(3-trifluoromethyl-pyridin-2-yl)-quinazolin-4-yl]-(6-trifluoromethyl-pyridin-3-yl)-amine], the Ki is < 1000 nM.

As for `C=CCN(CC=C)Cc1nc(Nc2ccc(C(F)(F)F)nc2)c2ccc(-c3ncccc3C(F)(F)F)cc2n1` [Compound 372, [2-Diallylaminomethyl-7-(3-trifluoromethyl-pyridin-2-yl)-quinazolin-4-yl]-(6-trifluoromethyl-pyridin-3-yl)-amine], the Ki is < 1000 nM.

As to `CCCN(CCC)Cc1nc(Nc2ccc(C(F)(F)F)nc2)c2ccc(-c3ncccc3C(F)(F)F)cc2n1` [Compound 373, [2-Dipropylaminomethyl-7-(3-trifluoromethyl-pyridin-2-yl)-quinazolin-4-yl]-(6-trifluoromethyl-pyridin-3-yl)-amine], the inhibition constant (Ki) is < 1000 nM.

As for `CCCCN(CC)Cc1nc(Nc2ccc(C(F)(F)F)nc2)c2ccc(-c3ncccc3C(F)(F)F)cc2n1` [Compound 374, [2-[(Butyl-ethyl-amino)-methyl]-7-(3-trifluoromethyl-pyridin-2-yl)-quinazolin-4-yl]-(6-trifluoromethyl-pyridin-3-yl)-amine], the inhibition constant Ki was < 1000 nM.

In the case of `CCCN(Cc1nc(Nc2ccc(C(F)(F)F)nc2)c2ccc(-c3ncccc3C(F)(F)F)cc2n1)CC1CC1` [Compound 375, [2-[(Cyclopropylmethyl-propyl-amino)-methyl]-7-(3-trifluoromethyl-pyridin-2-yl)-quinazolin-4-yl]-(6-trifluoromethyl-pyridin-3-yl)-amine], the inhibition constant (Ki) was < 1000 nM.

Take `CCCCCCN(C)Cc1nc(Nc2ccc(C(F)(F)F)nc2)c2ccc(-c3ncccc3C(F)(F)F)cc2n1` [Compound 376, [2-[(Hexyl-methyl-ainino)-methyl]-7-(3-trifluoromethyl-pyridin-2-yl)-quinazolin-4-yl]-(6-trifluoromethyl-pyridin-3-yl)-amine]: the inhibition constant Ki is < 1000 nM.

As for `CCCCN(CCCC)Cc1nc(Nc2ccc(C(F)(F)F)nc2)c2ccc(-c3ncccc3C(F)(F)F)cc2n1` [Compound 377, [2-Dibutylaminomethyl-7-(3-trifluoromethyl-pyridin-2-yl)-quinazolin-4-yl]-(6-trifluoromethyl-pyridin-3-yl)-amine], the Ki is < 1000 nM.

Consider `CC(C)N(C)Cc1nc(Nc2ccc(C(F)(F)F)nc2)c2ccc(-c3ncccc3C(F)(F)F)cc2n1` [Compound 378, [2-[(Isopropyl-methyl-amino)-methyl]-7-(3-trifluoromethyl-pyridin-2-yl)-quinazolin-4-yl]-(6-trifluoromethyl-pyridin-3-yl)-amine], for which the inhibition constant Ki is < 1000 nM.

For `CC1CCCCN1Cc1nc(Nc2ccc(C(F)(F)F)nc2)c2ccc(-c3ncccc3C(F)(F)F)cc2n1` (stereo not drawn) [Compound 379, [2-(2-Methyl-piperidin-1-ylmethyl)-7-(3-trifluoromethyl-pyridin-2-yl)-quinazolin-4-yl]-(6-trifluoromethyl-pyridin-3-yl)-amine], the inhibitory constant (Ki) was < 1000 nM.

`C=C(C)CN(CC)Cc1nc(Nc2ccc(C(F)(F)F)nc2)c2ccc(-c3ncccc3C(F)(F)F)cc2n1` [Compound 380, [2-{[Ethyl-(2-methyl-allyl)-amino]-methyl}-7-(3-trifluoromethyl-pyridin-2-yl)-quinazolin-4-yl]-(6-trifluoromethyl-pyridin-3-yl)-amine]: the Ki was < 1000 nM.

In the case of `CN(Cc1nc(Nc2ccc(C(F)(F)F)nc2)c2ccc(-c3ncccc3C(F)(F)F)cc2n1)C1CCCCC1` [Compound 381, [2-[(Cyclohexyl-methyl-amino)-methyl]-7-(3-trifluoromethyl-pyridin-2-yl)-quinazolin-4-yl]-(6-trifluoromethyl-pyridin-3-yl)-amine], the Ki is < 1000 nM.

On to `CCC1CCCCN1Cc1nc(Nc2ccc(C(F)(F)F)nc2)c2ccc(-c3ncccc3C(F)(F)F)cc2n1` (stereo not drawn) [Compound 382, [2-(2-Ethyl-piperidin-1-ylmethyl)-7-(3-trifluoromethyl-pyridin-2-yl)-quinazolin-4-yl]-(6-trifluoromethyl-pyridin-3-yl)-amine], for which the Ki was < 1000 nM.

For `CCN(Cc1nc(Nc2ccc(C(F)(F)F)nc2)c2ccc(-c3ncccc3C(F)(F)F)cc2n1)C1CCCCC1` [Compound 383, [2-[(Cyclohexyl-ethyl-amino)-methyl]-7-(3-trifluoromethyl-pyridin-2-yl)-quinazolin-4-yl]-(6-trifluoromethyl-pyridin-3-yl)-amine], the Ki was < 1000 nM.

For the compound `COCCN(CCOC)Cc1nc(Nc2ccc(C(F)(F)F)nc2)c2ccc(-c3ncccc3C(F)(F)F)cc2n1` [Compound 384, [2-{[Bis-(2-methoxy-ethyl)-amino]-methyl}-7-(3-trifluoromethyl-pyridin-2-yl)-quinazolin-4-yl]-(6-trifluoromethyl-pyridin-3-yl)-amine], the Ki was < 1000 nM.

For the compound `CCCCCN(CCCCC)Cc1nc(Nc2ccc(C(F)(F)F)nc2)c2ccc(-c3ncccc3C(F)(F)F)cc2n1` [Compound 385, [2-Dipentylaminomethyl-7-(3-trifluoromethyl-pyridin-2-yl)-quinazolin-4-yl]-(6-trifluoromethyl-pyridin-3-yl)-amine], the Ki is < 1000 nM.

Regarding `CCCCCCN(CCCCCC)Cc1nc(Nc2ccc(C(F)(F)F)nc2)c2ccc(-c3ncccc3C(F)(F)F)cc2n1` [Compound 386, [2-Dihexylaminomethyl-7-(3-trifluoromethyl-pyridin-2-yl)-quinazolin-4-yl]-(6-trifluoromethyl-pyridin-3-yl)-amine], the inhibition constant Ki was < 1000 nM.

Consider `CC1CC(C)CN(Cc2nc(Nc3ccc(C(F)(F)F)nc3)c3ccc(-c4ncccc4C(F)(F)F)cc3n2)C1` (stereo not drawn) [Compound 387, [2-(3,5-Dimethyl-piperidin-1-ylmethyl)-7-(3-trifluoromethyl-pyridin-2-y)-quinazolin-4-yl]-(6-trifluoromethyl-pyridin-3-yl)-amine], for which the inhibition constant (Ki) is < 1000 nM.

As for `CC(c1ccccc1)N(C)CCc1nc(Nc2ccc(C(F)(F)F)cc2)c2ccc(-c3ncccc3C(F)(F)F)cc2n1` (stereo not drawn) [Compound 388, [2-{2-[Methyl-(1-phenyl-ethyl)-amino]-ethyl}-7-(3-trifluoromethyl-pyridin-2-yl)-quinazolin-4-yl]-(4-trifluoromethyl-phenyl)-amine], the Ki is < 1000 nM.

As to `CN(CCc1nc(Nc2ccc(C(F)(F)F)cc2)c2ccc(-c3ncccc3C(F)(F)F)cc2n1)C1CCc2ccccc21` (stereo not drawn) [Compound 389, [2-[2-(Indan-1-yl-methyl-amino)-ethyl]-7-(3-trifluoromethyl-pyridin-2-yl)-quinazolin-4-yl]-(4-trifluoromethyl-phenyl)-amine], the inhibition constant Ki was < 1000 nM.
